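GI50 is the concentration that inhibits growth by half. TGI is the concentration that stops growth completely.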
Legend:
Assay in all cases: NCI anticancer screen, dose series, 384-well format
SNB-75 CNS = tested on: SNB-75 CNS
EKVX NSCLC = tested on: EKVX NSCLC
IGROV1 ovarian = tested on: IGROV1 ovarian
SN12C renal = tested on: SN12C renal
HS 578T breast = tested on: HS 578T breast
HOP-92 NSCLC = tested on: HOP-92 NSCLC
U251 glioblastoma = tested on: U251 glioblastoma
UO-31 renal = tested on: UO-31 renal
HL-60(TB) leukemia = tested on: HL-60(TB) leukemia
SR leukemia = tested on: SR leukemia
HOP-62 NSCLC = tested on: HOP-62 NSCLC
CCRF-CEM leukemia = tested on: CCRF-CEM leukemia
MOLT-4 leukemia = tested on: MOLT-4 leukemia

## NC(=O)c1cccc2cn(-c3ccc([C@@H]4CCCNC4)cc3)nc12
SNB-75 CNS
  GI50: 4.68 µM
  TGI: 16.5 µM
EKVX NSCLC
  GI50: 17.7 µM
  TGI: 34.7 µM
IGROV1 ovarian
  GI50: 12.9 µM
  TGI: 27.2 µM
SN12C renal
  TGI: > 43.4 µM
HS 578T breast
  GI50: 10.1 µM
  TGI: 21.9 µM
HOP-92 NSCLC
  GI50: 14.3 µM
  TGI: 28.3 µM
U251 glioblastoma
  GI50: 12.2 µM
  TGI: 25.1 µM
UO-31 renal
  GI50: 14 µM
  TGI: 27.7 µM
HL-60(TB) leukemia
  GI50: 1.85 µM
  TGI: 3.88 µM
SR leukemia
  GI50: 0.805 µM
  TGI: 2.18 µM
HOP-62 NSCLC
  GI50: 3.12 µM
  TGI: 11.3 µM
CCRF-CEM leukemia
  GI50: 1.83 µM
  TGI: 3.71 µM
MOLT-4 leukemia
  GI50: 1.49 µM
  TGI: 2.83 µM

— PubChem BioAssay (NCI)
